This note sets out measurements from US20180230143A1, “INHIBITORS OF NHR2 AND/OR RUNX1/ETO-TETRAMERIZATION” (Heinrich-Heine-Universität Düsseldorf, priority 2013, published 2018).

Assay [1] addresses T1, RUNX1-NHR2 protein (Homo sapiens, UniProt Q01196+Q06455).
T1 construct: the wild type NHR2 tetramerization domain or the homologous BCR tetramerization domain (highlighted) are optionally enclosed by an N-terminal RUNX1 domain; His6 (C); made in house; host or cells: E. coli BL21(DE3)
As to the kind of experiment: ABCD (avidin, biotin, complex, DNA) assay with RUNX1-NHR2 protein. The following applies: relative inhibition at 1 mM inhibitor concentration; RUNX1-NHR2 protein; read-out: ABCD Inhibition [%] NHR2. It counts as biochemical. The method, then:
(§1) Oligonucleotides were annealed to the corresponding unmodified antisense oligonucleotide to generate the RUNX1 binding site. Purified RUNX1 proteins were pre-incubated with a compound for 1 h at 4° C. Similarly the biotinylated double-stranded oligonucleotides were pre-incubated with streptavidin coated magnetic beads (Dynabeads M-280 Streptavidin, Invitrogen) for 1 h at 4° C. Protein/compound samples and beads with bound oligonucleotide were incubated in binding buffer (25 mM HEPES, pH 7.5, 50 mM KCl, 1 mM EDTA, pH 8.0, 10 mM MgCl2, 5% glycerol, 1 mM DTT) in the presence of 2% IGEPAL CA-630, 1 μg of salmon sperm, and 0.1% BSA for […]. After washing three times, the bound proteins were eluted from beads in SDS-PAGE sample buffer and resolved on SDS-PAGE followed by immunoblotting with a primary anti-myc (9E10, Santa Cruz) antibody and a secondary HRP-coupled antibody (goat anti-mouse IgG-HRP, Santa Cruz).

Assay [2] deals with SKNO-1 cells. The assay can be described thus: Xenotransplantation of pre-treated SKNO-1 cells in SCID mice. In kind it is in vivo, mouse. The following applies: cells treated in vitro with 25 μM for four days, injected subcutaneously, versus untreated cells.
Method: The effect of the inhibition of NHR2 tetramerization was measured in a mouse model (xenotransplantation of SKNO-1 and K562 cells in SCID mice).
(§2) For the experiment, the SCID- or SCUD-gamma chain mouse model was used. The experiment investigates if the transplantation of the AML cell line SKNO-1 after treatment with either 7.44 or 7.38 leads to reduced tumor growth. […] For this, the cells were treated in vitro with 25 μM of the respective compound for four days. Furthermore, untreated SKNO-1 and CML cell lines were used. […] At day 5 the number of living cells was determined, and 5×10^5 SKNO-1 cells or 5×10^5 K562 cells were injected per transplant. Per mouse, untreated and treated cells were injected into the left and right flank, respectively.
For determining the tumor volume, the length and the width of the tumor was measured twice weekly, starting one week after the transplantation (FIGS. 5A and 5B). […] At the end of the experiment, the tumors were freed and weighed (FIGS. 5C and 5D).
Assay [3] deals with SKNO-1 cells. As to the kind of experiment: Cell survival assay (XTT), RUNX1/ETO-dependent SKNO-1 cells. In kind it is cell-based. As to conditions: daily treated with 1 μM or 10 μM; XTT at days 3, 5, and 7. On the technique in general: Tetrazolium assays rely on reduction of a dye to a coloured formazan, in cell work by metabolically active cells.
Method: Cell proliferation and viability were measured with the cell proliferation kit II (XTT, Roche Applied Science). The XTT assay was performed at days 3, 5, and 7. […] SKNO-1 cells were cultured in RPMI 1640+10% FCS and 7 ng ml^−1 human GM-CSF. […] Cell proliferation and viability were measured with the cell proliferation kit II (XTT, Roche Applied Science). 3000 cells per well were cultured in a 96 well plate and daily treated with compounds at different concentrations. The XTT assay was performed at days 3, 5, and 7.
The target in assay [4] is T1, RUNX1-NHR2 protein. As to the kind of experiment: ELISA: tetramer-dependent binding of RUNX1-NHR2 protein to immobilized RUNX3 oligonucleotide. In kind it is biochemical. Here is the method:
Preferably, for enzyme-linked immunosorbent assays (ELISA), wells of a 96 well plate were coated with 100 ng streptavidin (Dianova) in PBS over night at 4° C. […] Binding of RUNX1-containing proteins to the R3 oligonucleotide was detected with a primary anti-myc antibody (9E10, Santa Cruz) and a secondary HRP-coupled antibody (donkey anti-mouse IgG-HRP, Santa Cruz). ELISA was developed using the Sure Blue TMB Microwell Peroxidase substrate (KLP), and the reaction was stopped with sulfuric acid (1 N). Absorption at 450 nm and 650 nm was measured with the Spectra Max 340, Molecular Devices. Preferably, the ELISA assay is as further described in the experimental section.
The inhibition of NHR2 tetramerization was measured in vitro by tetramer-dependent binding of a RUNX1-NHR2 protein construct to an immobilized oligonucleotide derived from the RUNX3 promoter sequence in ELISA and ABCD assays. […] Furthermore, the influence of the inhibitors on the viability of RUNX1/ETO-dependent SKNO-1 cells was determined; as a control RUNX1/ETO-independent U937 cells were used.
The principle of the biochemical assays for measuring inhibition of NHR2 tetramerization is illustrated in FIG. 1. NHR2 tetramerization and its inhibition was measured in a purpose-built sandwich ELISA (enzyme-linked immunosorbent assay: FIG. 1A). • i) The RUNX1-NHR2 tetramer specifically binds to the biotinylated RUNX3-oligonucleotide (RUNX3-oligo^bio) that is immobilized on a streptavidine coated surface (SA). Disrupting the RUNX1-NHR2 tetramer into dimers leads to a release of the RUNX1-NHR2 protein from the surface. Antibody-conjugated horseradish peroxidase (HRP) binds to a primary anti-myc antibody (α-myc AB) that binds to the immobilized myc-labeled RUNX1-NHR2 tetramer. HRP catalyzes the conversion of 3,3′,5,5′-tetramethylbenzidine (TMB) to 3,3′,5,5-tetramethylbenzidine diimine.
Wells of a 96 well plate were coated with 100 ng streptavidin (Dianova) in PBS over night at 4° C. […] RUNX1-containing proteins were incubated with synthetic peptides or chemical compounds in binding buffer (25 mM HEPES, pH 7.5, 50 mM KCl, 1 mM EDTA, pH 8.0, 10 mM MgCl2, 5% glycerol, 1 mM DTT) in the presence of 1 μg salmon sperm and 1% IGEPAL CA-630 for 5 h and subsequently added to the streptavidin-bound R3 oligonucleotide for 15 min on the 96 well plate. Binding of RUNX1-containing proteins to the R3 oligonucleotide was detected with a primary anti-myc antibody (9E10, Santa Cruz) and a secondary HRP-coupled antibody (donkey anti-mouse IgG-HRP, Santa Cruz). ELISA was developed using the Sure Blue TMB Microwell Peroxidase substrate (KLP), and the reaction was stopped with sulfuric acid (1 N). Absorption at 450 nm and 650 nm was measured with the Spectra Max 340, Molecular Devices.
For orientation: In an ELISA, binding on a coated surface is turned into a signal by an enzyme label.

For assay [5], the system named is SKNO-1 cells. As to the kind of experiment: FACS analysis of CD11b expression, SKNO-1 cells. It counts as cell-based. As to conditions: 25 μM for four days, at the day of injection. In general terms: In flow cytometry, cells or beads pass a laser one at a time.
Method: as §2
At the day of injection, the expression of the surface marker CD11b, a measure for cell differentiation, was determined (FIG. 5E) as was the rate of apoptosis (FIG. 5F).
Another assay has as its target T2, RUNX1-BCR protein (Homo sapiens, UniProt P11274+Q01196).
T2 construct: replacing the NHR2 domain of the construct with the homologous BCR tetramerization domain (RUNX1-BCR protein); His6 (C); made in house; host or cells: E. coli BL21(DE3)
The assay can be described thus: ABCD (avidin, biotin, complex, DNA) assay with RUNX1-BCR protein. In kind it is biochemical. The following applies: relative inhibition at 1 mM inhibitor concentration; RUNX1-BCR; read-out: ABCD Inhibition [%] BCR. Here is the method:
as §1

T1 sequence (Q01196+Q06455 fused): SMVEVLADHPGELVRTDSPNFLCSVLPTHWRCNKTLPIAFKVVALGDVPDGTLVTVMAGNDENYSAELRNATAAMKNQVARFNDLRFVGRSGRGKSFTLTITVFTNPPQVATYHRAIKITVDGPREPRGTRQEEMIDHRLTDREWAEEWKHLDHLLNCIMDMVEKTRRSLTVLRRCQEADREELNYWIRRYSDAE
T2 sequence (Q01196+P11274 fused): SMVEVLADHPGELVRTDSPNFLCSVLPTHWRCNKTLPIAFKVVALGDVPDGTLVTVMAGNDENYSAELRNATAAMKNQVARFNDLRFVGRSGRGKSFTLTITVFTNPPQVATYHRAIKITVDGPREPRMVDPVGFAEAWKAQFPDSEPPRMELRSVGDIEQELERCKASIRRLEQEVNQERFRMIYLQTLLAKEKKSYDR

As a reminder, the inhibition is the relative decrease from the control value, in per cent. For orientation: IC50 means the concentration that inhibits the measured activity by half. In the case of `Cc1c(C(=O)O)[nH]c(/C=C/C(=O)O)nc1=O` [Compound 7.38, (E)-2-(2-carboxyvinyl)-5-methyl-6-oxo-3,6-dihydropyrimidine-4-carboxylic acid, reference compound], the inhibition at 1000 µM on RUNX1-NHR2 protein [1] turned out to be 20.1%; on RUNX1-BCR protein, 26.1%. Besides, in the assay on SKNO-1 cells [2], the “tumor growth (tumor volume) of transplanted SKNO-1 cells” value is recorded as “small reduction”. Moreover, in the assay on SKNO-1 cells [3], the “proliferation of SKNO-1 cells (XTT assay)” value is listed as “did not affect”. Moreover, at RUNX1-NHR2 protein [4] ([P1]=500 μM and [PPIM]=2000 μM in ELISA), the “inhibition of tetramer-dependent binding of the RUNX1-NHR2 protein to immobilized RUNX3 oligonucleotide, ELISA” value is “not”. On RUNX1-NHR2 protein [4] (inhibition of tetramerization of the RUNX1-NHR2 protein), this compound showed an IC50 of more than 2000 µM. The inhibition at 2000 µM on RUNX1-NHR2 protein [4] (measured at 2 mM concentration, RUNX1-NHR2 protein, read-out: ELISA Inhibition [%] NHR2) was found to be 4%. Further, the “increase of the CD11b expression in SKNO-1 cells” value with SKNO-1 cells [5] was 2%.
